In brackets after ≈: the same amount, converted by molar mass. Read-outs that look alike come from different tables or passages of the source. Where a SMILES comes first, the peptide text is derived from it. Where no end group is shown, it is not given here. [ ]: non-standard residue; d: D form.

The nature of series [1]: Protease resistance assay (serum stability), SDS-PAGE and Green Angel staining. The format is in vitro ADME. Particulars: 5% bovine serum, 37° C. On the procedure:
To compare the stability of the 37-mer L- and D-HBcARD peptides against serum protease degradation, we performed a protease resistance assay. After incubation with 5% bovine serum at 37° C. for 3 hours, more than 80% of L-HBcARD peptide was no longer detectable by staining with Green Angel on SDS-PAGE. In contrast, the signal intensity of the D-HBcARD peptide was not reduced under the same condition.
L- and D-HBcARD peptides (0.5 nmol) were mixed with MBC buffer in the presence or absence of 5% serum collected from bovine, mouse and human origins. After incubation at 37° C. for 3 hours, the amounts of peptides surviving the protease digestion were determined by SDS-PAGE electrophoresis and staining with Green Angel. The images were quantified using image J software and the intensities were normalized with the no serum control. To investigate the effect of serum on the antimicrobial activity of HBcARD peptides, L- and D-HBcARD peptides at their respective MBC concentrations were incubated with S. aureus ATCC19636 strain (10^6 CFU/ml) at 37° C. for three hours. Bacteria were plated on MH agar and the antimicrobial activity was determined by colony formation.

Series [2] deals with S. aureus. It is filed as cell-based, Staphylococcus aureus. On the procedure:
(§1) The antimicrobial activities of HBcARD peptides were tested using a number of bacterial strains, including Pseudomonas aeruginosa Migula strains (ATCC 27853, ampicillin-resistant and ATCC 9027, ampicillin-resistant), Klebsiella pneumoniae strain (ATCC 13884), Shigella dysenteriae Xen27 (Caliper Co.), Escherichia coli strain (ATCC 25922), Staphylococcus aureus subsp. strains (ATCC 25923, methicillin-resistantATCC 29213, methicillin-resistant and ATCC 19636, methicillin-resistant) and Acinetobacter baumannii strains (ATCC 17978, ATCC 17978 CR, ATCC19606, ATCC 19606 CR, TCGH 45530 and TCGH 46709). Clinical isolates TCGH 45530 and TCGH 46709 were obtained from Tzu-Chi Buddhist General Hospital (TCGH) in Taiwan, and were identified using the Vitek system (Biomerieux Vitek, Inc., Hazelwood, MO, USA). See Chang et al. (2012), J Microbiol Immunol Infect 45:37-42 doi:10.1016/j.jmii.2011.09.019.
(§2) L- and D-HBcARD peptides were purchased from Yao-Hong Biotechnology Inc. (Taipei, Taiwan). Antimicrobial activity was determined as described. See, Chen et al., 2013. Briefly, bacteria were grown in MH broth (Difco) to mid-logarithmic phase at 37° C., and were diluted to 10^6 CFU (colony formation unit)/ml in phosphate buffer (10 mM sodium phosphate and 50 mM sodium chloride, pH 7.2). Peptides were serially diluted in the same buffer. Fifty microliters (μl) of bacteria were mixed with fifty μl of peptides at varying concentrations, followed by incubation at 37° C. for 3 hours without shaking. At the end of incubation, bacteria were placed on Mueller-Hinton broth agar plates, and allowed to grow at 37° C. overnight for measurement of minimal bactericidal concentration (MBC).
(§3) All peptides were tested in triplicate.

The subject of series [3] is A. baumannii. The format is cell-based, Acinetobacter baumannii. On the procedure:
as §1, §2, §3

The subject of series [4] is S. dysenteriae Xen27. It is filed as cell-based, Shigella dysenteriae. On the procedure:
as §1
L- and D-HBcARD peptides were purchased from Yao-Hong Biotechnology Inc. (Taipei, Taiwan). Antimicrobial activity was determined as described. See, Chen et al., 2013. Briefly, bacteria were grown in MH broth (Difco) to mid-logarithmic phase at 37° C., and were diluted to 10^6 CFU (colony formation unit)/ml in phosphate buffer (10 mM sodium phosphate and 50 mM sodium chloride, pH 7.2). Peptides were serially diluted in the same buffer. […]

Series [5] concerns P. aeruginosa. The format is cell-based, Pseudomonas aeruginosa. The method, then: as §1, §2, §3
For series [6], the system named is human red blood cells (hRBCs). In words: Hemolytic activity. To be noted: up to 460 mg/L, 37° C., one hour. The format is cell-based. On the procedure: In the hemolysis assay, human RBCs were incubated with serially-diluted doses (0 to 460 mg/L) of D-HBcARD, L-HBcARD, or melittin, at 37° C. for one hour.
The hemolytic activities of peptides were determined by hemolysis against human red blood cells (hRBCs). Human blood was obtained in EDTA-containing tube and was centrifuged at 450 g for 10 min. The pellet was washed three times with PBS buffer, and a solution of 10% hRBCs was prepared. hRBCs solution was mixed with serial dilutions of peptides in PBS buffer, and the reaction mixtures were incubated for 1 h at 37° C. After centrifugation at 450 g for 10 min, the percentage of hemolysis was determined by measuring the absorbance at the wavelength of 405 nm of the supernatant. Blank and 100% hemolysis were determined in PBS buffer and in the presence of 1% Triton X-100, respectively.

The test system of series [7] is S. aureus ATCC 19636. Description: Immunogenicity: sepsis model in peptide-immunized mice. The format is in vivo, ICR mice. Particulars: immunized three times with 5 mg/kg peptide. On the procedure: FIG. 4 is a set of graphs showing comparison of in vivo protection activities between L- and D-form HBcARD peptides in a mouse sepsis model infected with S. aureus. (A) Three week-old ICR mice were inoculated with S. aureus (4×10^6 CFU/mouse) and i.p. injected with PBS, L-HBcARD, or D-HBcARD at 2 hours post-inoculation. Each group contained ten mice. (B) and (C) Three week-old ICR mice were immunized with L- and D-HBcARD peptides (5 mg/kg), respectively, at day 0, 3 and 6. On day 14, the mice were inoculated with S. aureus (4×10^6 CFU/mouse) and i.p. injected with PBS, L-HBcARD or D-HBcARD (10 mg/kg) at 1 hour post-inoculation, respectively. Another group of mice were treated with PBS in parallel as a control. Each group of animals contained five mice. *P<0.05; ***P<0.0001; ns, no significance.
To investigate whether repeated treatments with the 37-mer HBcARD peptides may compromise the efficacy by inducing neutralization antibody in vivo, we immunized 3-week old mice three times with L- and D-HBcARD peptides, respectively, prior to bacterial infection. […]
To investigate the potential immunogenicity of HBcARD peptides, we determined the in vivo antimicrobial activity of HBcARD peptide in peptide-immunized mice. […] Mortality was monitored daily for 7 days following the bacterial inoculation.

Series [8] relates to E. coli. It is filed as cell-based, Escherichia coli. On the procedure: as §1, §2, §3
Series [9] relates to K. pneumoniae. The format is cell-based, Klebsiella pneumoniae. The method, then:
as §1, §2, §3

The subject of series [10] is colistin-resistant A. baumannii TCGH 46709. In words: Mouse lung infection model, intra-tracheal inoculation. The format is in vivo, BALB/c mice. To be noted: 5 mg/kg/day ip. The method, then:
FIG. 6 is a graph showing in vivo protection efficacies of 150-177C and 150-177Q peptides in a BALB/c mouse lung infection model. Colistin-resistant A. baumannii was inoculated via intra-tracheal route.
BALB/c mice (n=8/group) were intra-tracheally inoculated with colistin-resistant A. baumannii TCGH 46709 (3.4×10^8 cfu/mouse). These lung-infected mice were ip. treated with colistin (5 mg/kg/day) or D-150-177C (5 and 10 mg/kg/day), respectively.

On to `CC(C)[C@H](NC(=O)[C@@H](NC(=O)[C@@H](N)[C@@H](C)O)C(C)C)C(=O)N[C@H](CCCNC(=N)N)C(=O)N[C@H](CCCNC(=N)N)C(=O)N[C@H](CCCNC(=N)N)C(=O)NCC(=O)N[C@H](CCCNC(=N)N)C(=O)N[C@@H](CO)C(=O)N1CCC[C@H]1C(=O)N[C@H](CCCNC(=N)N)C(=O)N[C@H](CCCNC(=N)N)C(=O)N[C@H](CCCNC(=N)N)C(=O)N[C@H](C(=O)N1CCC[C@H]1C(=O)N[C@@H](CO)C(=O)N1CCC[C@H]1C(=O)N[C@H](CCCNC(=N)N)C(=O)N[C@H](CCCNC(=N)N)C(=O)N[C@H](CCCNC(=N)N)C(=O)N[C@H](CCCNC(=N)N)C(=O)N[C@@H](CO)C(=O)N[C@@H](CCC(N)=O)C(=O)N[C@@H](CO)C(=O)N1CCC[C@H]1C(=O)N[C@H](CCCNC(=N)N)C(=O)N[C@H](CCCNC(=N)N)C(=O)N[C@H](CCCNC(=N)N)C(=O)N[C@H](CCCNC(=N)N)C(=O)N[C@@H](CO)C(=O)N[C@@H](CCC(N)=O)C(=O)N[C@@H](CO)C(=O)N[C@H](CCCNC(=N)N)C(=O)N[C@@H](CCC(=O)O)C(=O)N[C@@H](CO)C(=O)N[C@@H](CCC(N)=O)C(=O)N[C@@H](CS)C(=O)O)[C@@H](C)O` [D-HBcARD, TVVrrrGrSPrrrTPSPrrrrSQSPrrrrSQSrESQC] (H-TVV[dR][dR][dR]G[dR]SP[dR][dR][dR]TPSP[dR][dR][dR][dR]SQSP[dR][dR][dR][dR]SQS[dR]ESQC-OH; N-terminus and C-terminus assumed), for which, in series [1] (3 hours), the “signal intensity of the peptide after serum incubation” value is given as “not reduced”. In addition, the MBC in series [2] fell in the range of 4.6 to 9.2 µg/mL; in [3], 2.3 to 4.6 µg/mL. The Minimal bactericidal concentration turned out to be 73.6 µg/mL (≈ 16 µM) in series [4] (S. dysenteriae Xen27), 4.6 µg/mL (≈ 1 µM) in [5] and 73.6 µg/mL (≈ 16 µM) in [8]. Moreover, the hemolytic activity result in [6] is given as “no hemolytic activity”. Also, the “neutralization activity induced by prior immunizations” value in series [7] is on record as “no neutralization activity”.

On to “TVVRRRGRSPRRRTPSPRRRRSQSPRRRRSQSRESQC [L-HBcARD]”, for which the metabolised at 3 h in series [1] (read-out: peptide no longer detectable by staining with Green Angel on SDS-PAGE) was over 80%. The Minimal bactericidal concentration in [9] is 9.2 µg/mL; in series [2], 18.4 µg/mL; in [4], 18.4 µg/mL; in series [8], 18.4 µg/mL. Moreover, in [6], the hemolytic activity entry is given as “no hemolytic activity”. Further, the “neutralization activity induced by prior immunizations” value in [7] is recorded as “no neutralization activity”.

Take colistin: the survival outcome in [10] is on record as “died at 60 hours post-inoculation”.

What is called MBC is the lowest tested concentration that kills the bacteria rather than only halting them. A lower MBC goes with greater bactericidal potency.

For the origin of these results see patent US12084479B2, “Modified antimicrobial peptide derived from an arginine-rich domain” (priority 2016, dated 2024).
